Measurements reported in US11938190B2, “Herbal extracts for treatment of herpesvirus infections” (KAMEDIS LTD., priority 2018, dated 2024).
Values after ≈ are worked out from the molar mass of the structure shown.

System: Herpes Simplex Virus type 1 (HSV-1)
Assay: microbe, parasite or virus in culture
Format: cell-based
Conditions: Human alphaherpesvirus 1; Example 2; acyclovir dose-response curve; EYFP-HSV-1, Vero cells

## Nc1nc2c(ncn2COCCO)c(=O)[nH]1 [Acyclovir]
  IC50: 0.126 ± 0.014 µg/mL (≈ 0.559 µM)
